PMC6072853 (Frontiers in Pharmacology, 2018)

How the values were obtained:
Assay type in all cases: cell-based, human
MCF-7 = assay: MTT antiproliferative assay, MCF-7; conditions: Homo sapiens, MCF7, 72 h, read-out: Growth inhibition (%) ± SEM; for inhibition at 10 µM: MCF-7, 10 μM; for inhibition at 30 µM: MCF-7, 30 μM
Source text: (§1) Gynecological cancer cell lines, including ovarian (A2780), cervical (HeLa), and breast cancer cell lines (MCF7, T47D, MDA-MB-231, and MDA-MB-361) were purchased from the European Collection of Authenticated Cell Cultures (ECACC, Salisbury, United Kingdom). Additional cervical cell lines (SiHa and C33A) and a non-cancerous immortalized, mammary gland epithelial cell line (hTERT-HME1) were purchased from LGC Standards GmbH (Wesel, Germany). Non-cancerous fibroblast cells (MRC-5) were also obtained from the ECACC. All cells were cultured in minimal essential medium supplemented with 10% fetal bovine serum, 1% non-essential amino acids, and 1% antibiotic-antimycotic mixture, in humidified air containing 5% CO2 at 37°C. Immortalized hTERT-HME1 cells were maintained in serum-free mammary epithelial cell growth medium (MEGM) supplemented with insulin, human epidermal growth factor (hEGF), hydrocortisone, bovine pituitary extract, and an antibiotic-antimycotic mixture. All the medium and supplements were purchased from Lonza Group Ltd. (Basel, Switzerland).
(§2) The antiproliferative properties of the compounds were assessed by an MTT assay ([Mosmann, 1983]). Cells were seeded onto 96-well microplates at a density of 10,000 cells/well (MDA-MB-361 and C33A) or 5,000 cells/well (all other cell lines). After an overnight incubation, fresh medium containing the test compounds (at a concentration of 10 or 30 μM) was added. After incubation for 72 h at 37°C in humidified air, [3-(4,5-dimethylthiazol-2-yl)-2,5-diphenyltetrazolium bromide] (MTT) solution (5 mg/mL) was added. Purple formazan crystals were formed by the living cells during a 4 h contact period, which were assayed by spectrophotometry after having been dissolved in 100 μL DMSO. Untreated cells served as control, and cisplatin (CIS) (Ebewe Pharma GmbH, Unterach, Austria) was used as a reference compound. […] Two independent measurements were performed with five parallel wells. To present preliminary data concerning tumor selectivity of the potent compounds, the procedure was repeated on MRC-5 fibroblast and hTERT-HME1 immortalized mammary gland epithelial cells under the same experimental conditions.

HeLa = assay: MTT antiproliferative assay, HeLa; conditions: Homo sapiens, 72 h; for inhibition at 10 µM / inhibition at 30 µM: read-out: Growth inhibition (%) ± SEM; for IC50: read-out: calculated IC50 value
Source text: as §1, §2

C33A = assay: MTT antiproliferative assay, C33A; conditions: Homo sapiens, C-33-A, 72 h, read-out: Growth inhibition (%) ± SEM
Source text: as §1, §2

T47D = assay: MTT antiproliferative assay, T47D; conditions: Homo sapiens, 72 h, read-out: Growth inhibition (%) ± SEM
Source text: as §1, §2

MDA-MB-231 = assay: MTT antiproliferative assay, MDA-MB-231; conditions: Homo sapiens, 72 h, read-out: Growth inhibition (%) ± SEM; for inhibition at 10 µM: MDA-MB-231, 10 μM; for inhibition at 30 µM: MDA-MB-231, 30 μM
Source text: as §1, §2

A2780 = assay: MTT antiproliferative assay, A2780; conditions: Homo sapiens, 72 h, read-out: Growth inhibition (%) ± SEM; for inhibition at 10 µM: A2780, 10 μM; for inhibition at 30 µM: A2780, 30 μM
Source text: as §1, §2

SiHa = assay: MTT antiproliferative assay, SiHa; conditions: Homo sapiens, 72 h, read-out: Growth inhibition (%) ± SEM
Source text: as §1, §2

MDA-MB-361 = assay: MTT antiproliferative assay, MDA-MB-361; conditions: Homo sapiens, 72 h, read-out: Growth inhibition (%) ± SEM; for inhibition at 10 µM: MDA-MB-361, 10 μM; for inhibition at 30 µM: MDA-MB-361, 30 μM
Source text: as §1, §2

MRC-5 = assay: MTT assay, non-cancerous fibroblasts MRC-5; conditions: Homo sapiens, MRC5, 72 h, read-out: Growth inhibition (%) ± SEM; for inhibition at 10 µM: MRC-5, 10 μM; for inhibition at 30 µM: MRC-5, 30 μM
Source text: as §1, §2

| Structure (SMILES) | inhibition at 10 µM (MCF-7) [%] | inhibition at 30 µM (MCF-7) [%] | inhibition at 10 µM (HeLa) [%] | inhibition at 30 µM (HeLa) [%] | IC50 (HeLa) [nM] | inhibition at 10 µM (C33A) [%] | inhibition at 30 µM (C33A) [%] | inhibition at 10 µM (T47D) [%] | inhibition at 30 µM (T47D) [%] | inhibition at 10 µM (MDA-MB-231) [%] | inhibition at 30 µM (MDA-MB-231) [%] | inhibition at 10 µM (A2780) [%] | inhibition at 30 µM (A2780) [%] | inhibition at 10 µM (SiHa) [%] | inhibition at 30 µM (SiHa) [%] | inhibition at 10 µM (MDA-MB-361) [%] | inhibition at 30 µM (MDA-MB-361) [%] | inhibition at 10 µM (MRC-5) [%] | inhibition at 30 µM (MRC-5) [%] |
| --- | --- | --- | --- | --- | --- | --- | --- | --- | --- | --- | --- | --- | --- | --- | --- | --- | --- | --- | --- |
| C[C@]12CC[C@H]3[C@@H](CCC4=CC(=O)CC[C@@H]43)[C@@H]1CC[C@H]2I [Compound 5] | < 20 | < 20 | 95.2 ± 0.4 | 95.8 ± 0.2 | 1490 | < 20 | < 20 | < 20 | < 20 | < 20 | < 20 | 27.7 ± 1.3 | 61.6 ± 1.8 | < 20 | < 20 | < 20 | < 20 | 13.1 ± 1.9 | 13.8 ± 2 |
| C[C@]12CC[C@H]3[C@@H](CCC4=CC(=O)CC[C@@H]43)[C@@H]1CC[C@H]2OC(=O)c1ccc([N+](=O)[O-])cc1[N+](=O)[O-] [Compound 6, 17α-19-nortestosterone-17-yl 2′,4′-dinitrobenzoate] | < 20 | 35.9 ± 1.4 | 32 ± 2.9 | 26.5 ± 2.3 | – | < 20 | < 20 | < 20 | 47.2 ± 2.6 | < 20 | < 20 | < 20 | 31.9 ± 2.6 | < 20 | < 20 | < 20 | < 20 | – | – |
| C[C@]12CC[C@H]3[C@@H](CCC4=CC(=O)CC[C@@H]43)[C@@H]1CC[C@H]2Br [Compound 4, 17α-bromo-19-nortestosterone] | < 20 | < 20 | 94.4 ± 0.7 | 94.1 ± 0.5 | 1690 | < 20 | < 20 | < 20 | < 20 | < 20 | < 20 | < 20 | 54.4 ± 1.6 | < 20 | < 20 | < 20 | < 20 | 11.9 ± 2.3 | 20.4 ± 2.1 |
